Laboratory results as given in US11932620B1, “Ethyl 2-[9-(6-flouro-2-hydroxyquinolin-3-yl)-1,8-dioxo-3,4,9,10-tetrahydroacridine-10-yl]-acetate as an antimicrobial compound” (KING FAISAL UNIVERSITY, priority 2023, dated 2024).

Legend:
Format in all cases: cell-based
Conditions in all cases: after 10, 20, 40 and 60 minutes at all dilutions 1:100, 1:200, 1:400, 1:800
Staphylococcus aureus = experiment: Antimicrobial screening by agar dilution, Staphylococcus aureus
Description: (§1) The antibacterial properties of the synthesized compound ethyl 2-[9-(6-fluoro-2-hydroxyquinolin-3-yl)-1,8-dioxo-3,4,9,10-tetrahydroacridine-10-yl]-acetate were studied by the method of agar dilution. Test solutions of each compound was prepared in concentration of 1% using dimethylformamide as a solvent then they are diluted in physiological solution to obtain the final experimental dilutions 1:100, 1:200, 1:400, 1:800. The effect of these substances are compared with furacillin in a controllable study. The testing microbes used were gram positive bacteria Staphylococcus aureus, gram negative bacteria Pseudomonas aeruginosa and Escherichia coli and Candida albicans fungus. The experiments used for this survey were meat-pentonlu agar (EPA) for cultivation of bacteria and Saburo environment for the fungus. Each experiment used 1 mL of test solution on each plate […]. Two drops of emulsified with microbes feel were added. All experimental samples were taken from the agar after 10, 20, 40, 60 minutes in the environment on the basis of Patrk planted. The bacteria were cultivated at a temperature of 37° C. for 1 day and the mushroom was kept in a thermostat for 2 hours at a temperature of 28° C. Then results were checked. Results of the control (Furacilin) and the antimicrobial activity for the synthesized compounds are listed in are listed in Table 1.

Escherichia coli = experiment: Antimicrobial screening by agar dilution, Escherichia coli
Description: as §1

Pseudomonas aeruginosa = experiment: Antimicrobial screening by agar dilution, Pseudomonas aeruginosa
Description: as §1

Candida albicans = experiment: Antimicrobial screening by agar dilution, Candida albicans
Description: as §1

Measured: inhibition activity (in words)

CCOC(=O)CN1C2=C(C(=O)CCC2)C(c2cc3cc(F)ccc3nc2O)C2=C1CCCC2=O [ethyl 2-[9-(6-fluoro-2-hydroxyquinolin-3-yl)-1,8-dioxo-3,4,9,10-tetrahydroacridine-10-yl]-acetate]
highest inhibition activity: all assays above
